Results on four compounds are retold here after patent US10251835B2, “Cranial delivery of pharmaceuticals” (GLIA, LLC, priority 2013, dated 2019).

Experiment [1] relates to patient with corneal Herpes zoster. The experiment is described as follows: Treatment of herpetic keratitis. The class given is in vivo, human. As to conditions: for intraocular pressure: ganciclovir gel plus progesterone to forehead. The text has this:
A person suffered a first onset of active corneal Herpes zoster. They presented with classic Herpes Zoster symptoms including, left hemisphere unilateral skin lesions on forehead, bridge of nose area and down the nose not including the tip; left cornea dendrites, keratitis and edema; loss of functional vision, elevated intraocular pressure as high as 42 mm Hg, conjunctival irritation and redness and anesthetic cornea. There were also general body flu symptoms.
The patient was initially treated with ophthalmic prednisolone acetate 1% up to 5 times daily, ophthalmic antibiotics, non-prescription ophthalmic wetting agents, and lubrication with gels administered to the eye. Additional drug therapies included systemic oral valcyclovir as high as 2 g per day and medications to reduce intraocular pressure.
Despite the therapy, symptom flare-up was as frequent as 2 weeks to 1 month over the past 10 years. Although intraocular pressure returned to within the normal range, cataracts formed as a result of long term use of corticosteroids.
The cornea surface contour became increasingly distorted with prominent ridges. There was incursion of capillaries across the conjunctiva into the cornea, both superficially and deep. Deposition of phospholipids through a leaching process occluded the cornea with grey color deposits on about 50% of its surface.
Corneal thinning had progressed to near perforation levels which required preparation for corneal patch surgery.
At this point, 1% topical progesterone (approximately 1 mg of progesterone) was first administered as a method to keep the cornea from perforating and the tear film intact. The drug was applied to the forehead 4 times daily together with topical antibiotics and corticosteroids.
After stabilizing the cornea, antiviral treatment was begun with ganciclovir gel (0.15%; 0.15 mg of drug) applied five times daily to the forehead together with once daily progesterone (1%; 1 mg of drug) and a nightly drop of ophthalmic antibiotic. Intraocular pressure measured at the onset of ganciclovir treatment was 18 mm Hg.
The patient reported a decrease in eye strain as a result of an improvement in tear film. […] Over the next two weeks, inflammation was further reduced and visual acuity increased somewhat when the head was tilted back. During the first full month of treatment, the affected eye generally felt comfortable. There was a lack of inflammation, and some vision returned to the threshold of functionality. Intraocular pressure remained normal in the range of 16 mm Hg.
There was modest improvement in reading the eye chart, and corneal staining due to defects was minimized. Intraocular pressure remained normal in both eyes at about 16 mm Hg during this period. The phospholipid deposits further reduced in density and began to give the appearance of lesser areas of concentrations. Nearly functional vision could be achieved by positioning the head back and viewing through the central cornea. The residual clear area of the cornea became more so and less inflamed. Through the end of the second month, improvement to the cornea accelerated. The pupil was now clearly visible and more light was entering the eye.
The patient was examined regularly by an ophthalmologist, and after three and one half months of treatment. The intraocular pressure was normal at 12 mm Hg. […] Intraocular pressure has remained in the same range for more than one year.

The test system of experiment [2] is subject with left-side trigeminal neuralgia and facial droop. The experiment is described as follows: Treatment of trigeminal neuralgia and facial palsy. The class given is in vivo, human. As to conditions: progesterone 1% (1 mg) four times daily to forehead followed by 0.15 g ganciclovir (0.15% formulation) up to five times daily. As to the method:
A subject presented with left-side trigeminal neuralgia and left side facial droop of 10 years duration. Therapy was initiated by topically applying progesterone (1% by weight) equivalent to 1 mg four times daily to the patient's forehead. This was followed by application of 0.15 g ganciclovir (as a 0.15% by weight formulation) up to five times daily.

A further experiment deals with person. The experiment is described as follows: Rapid anti-anxiety treatment. It counts as in vivo, human. As to conditions: 1 mg midazolam to forehead. As to the method: A person applied 1 mg of midazolam to their forehead on three separate occasions. […] These effects lasted for 4 to 6 hours after application of the drug.
In experiment [3] the test system is patient unable to swallow with loss of appetite. The experiment is described as follows: Treatment of drug-induced anorexia and oropharyngeal dysphagia, dronabinol applied to forehead. It counts as in vivo, human. As to the method: A patient had been on dexamethasone therapy for 20 months following surgery, radiation, and chemotherapy. After tapering the dose of dexamethasone from 16 mg per day to 1.5 mg per day, the patient was unable to swallow and reported a loss of appetite. Dronabinol was administered to the patient's forehead once per day at 2.5 mg per dose. Improvement in swallowing and appetite were noted within 24 hours of the first administration.
After three weeks of continued dronabinol therapy, application was again stopped for 24 hours, resulting in the same loss of appetite and difficulty swallowing.
The effect of oral administration of dronabinol was tested after another two weeks as an alternative to the topical route of administration described above. […] Typical meals include steak, meatball sandwich and fruit drinks.
The patient had also ceased dexamethasone dosing very early on.

Experiment [4] concerns person with late stage Alzheimer disease. The experiment is described as follows: Treatment of symptoms associated with Alzheimer's disease. It counts as in vivo, human. As to conditions: approximately 2 mg dronabinol to forehead, then daily dosing. As to the method: A person diagnosed with late stage Alzheimer disease five years ago suffers from episodes of extreme agitation, aggressive behavior, and nocturnal restlessness and disorientation that is difficult for their caregiver to manage. Approximately 2 mg dronabinol was delivered cranially to their forehead.

Experiment [5] deals with patient with cognitive impairment due to surgery. The experiment is described as follows: Treatment of surgically induced cognitive deficits, cranially delivered dronabinol. The class given is in vivo, human. The text has this:
The patient described in Example 1 suffered from a co-morbid condition of cognitive impairment due to surgery to remove a frontal lobe glioblastoma multiforma. The cognitive impairment continued for two years following the surgery at which time treatment with cranially delivered dronabinol was begun.

For experiment [6], the system named is person with CYMBALTA induced loss of appetite. As to conditions: 2 mg dronabinol to forehead daily with oral CYMBALTA; 2 week course. As to the method:
The subject topically applied 2 mg of dronabinol to their forehead daily together with the oral CYMBALTA™.

In experiment [7] the test system is dogs with mucus discharge from the eyes. The experiment is described as follows: Treatment of dry eye in domestic animals. As to conditions: bulldog; tacrolimus directly in the eye. It counts as in vivo, dog. The text has this: A puggle presented with mucus discharge from the eyes. […] The owner reported that the dog has this problem spring and fall, which indicates it is allergic seasonal rhinitis. The reported use took place in the fall.
A bulldog diagnosed with Sjogren's syndrome had mucus discharge from the eyes.

“Also recorded” adds a separate entry of the source. A value given as a limit tells only on which side of the number the result lay.

In the case of `Nc1nc(O)c2ncn(COC(CO)CO)c2n1` [ganciclovir], the “inflammation, visual acuity and state of affected eye” value in experiment [1] (ganciclovir gel 0.15% (0.15 mg) five times daily plus progesterone 1% (1 mg) once daily to forehead, nightly ophthalmic antibiotic, 1 week to 3.5 months) is “less inflammation and a slight improvement in visual acuity; also recorded: some functional vision was attained; also recorded: stable and normalizing”. Besides, the intraocular pressure in experiment [1] (after three and one half months) is 12 mm Hg; in experiment [1] (both eyes, examination period up to third month) it was “about 16 mm Hg”; in experiment [1] (first full month of treatment) it was around 16 mm Hg. In addition, the “facial muscles contracted for 10 years” value in experiment [2] is “relaxation of facial muscles”.

For the compound `Cc1ncc2n1-c1ccc(Cl)cc1C(c1ccccc1F)=NC2` [midazolam], in the experiment with person, the duration of effects fell in the range of 4 to 6 h; the effect produced result was “mild sedation and anti-anxiety”. The time to response in the experiment on person (three separate occasions) was at most 5 min.

As to `CCCCCc1cc(O)c2c(c1)OC(C)(C)[C@@H]1CCC(C)=C[C@@H]21` (relative stereo) [dronabinol, (6aR-trans)-6a,7,8,10a-tetrahydro-6,6,9-trimethyl-3-pentyl-6H-dibenzo[b,d]pyran-1-ol], the “appetite and swallowing after missing dronabinol therapy” value in experiment [3] (after missing one day of dronabinol therapy) was “decrease in appetite and difficulty swallowing liquids”. In addition, the “dose requirement on continued treatment” value in experiment [3] (after one year of cranial dosing with challenge stops and restarts) is listed as “No increase in dose has been required; also recorded: daily dosing is necessary for continued effectiveness”. Also, in experiment [3] (dronabinol 2.5 mg applied to forehead, four weeks, restarts and single rescue doses), the “appetite and swallowing (patient report)” value was “healthy appetite and no problems swallowing; also recorded: normal appetite and swallowing after one day; also recorded: complete reversal of symptoms within about two hours; also recorded: rescued again by single dose applied cranially”. Also, the “time to improvement in swallowing and appetite” value in experiment [3] (dronabinol 2.5 mg per dose to forehead once per day, after first administration) is at most 24 h. For the same compound, the “swallowing and chewing under oral administration” value in experiment [3] (oral 2.5 mg dronabinol instead of topical, within one day) is “difficulty swallowing and chewing”. Moreover, in experiment [4], the “agitation, aggressive behavior, nocturnal restlessness symptoms” value is “improvement in their symptoms was observable within two hours; also recorded: less frequent nocturnal disturbances; also recorded: additional significantly noticeable improvement in their symptoms”. Besides, in experiment [5], the “scar tissue around the area of surgery as detected by imaging” value is given as “noticeable decrease in scar tissue”. For the same compound, the “cognitive function (noted by physicians)” value in experiment [5] (begun two years after surgery) is given as “dramatic improvement in cognitive function”. Besides, in experiment [6], the “prevention of CYMBALTA induced loss of appetite” value is recorded as “prevented the CYMBALTA™ induced loss of appetite”.

In the case of `C=CC[C@@H]1/C=C(\C)C[C@H](C)C[C@H](OC)[C@H]2O[C@@](O)(C(=O)C(=O)N3CCCC[C@H]3C(=O)O[C@H](/C(C)=C/[C@@H]3CC[C@@H](O)[C@H](OC)C3)[C@H](C)[C@@H](O)CC1=O)[C@H](C)C[C@@H]2OC` [tacrolimus], the “mucus discharge from the eyes” value in experiment [7] is listed as “without completely stopping the discharge”.
